Assay results taken from patent publication US6281354A, “Analogs of duocarmycin and cc-1065” (The Scripps Research Institute, priority 1999, dated 2001).
Where two headings read alike, the source gives them in different places.

Assays:
w794 DNA [1] = assay: Relative rates of DNA alkylation for (+)-1, 53 and 54 at the w794 5'-AATTA site; assay type: biochemical, SV40; conditions: for concentration dependence of the rate of DNA alkylation: 10^-4 -10^-6 M
Protocol: Modifications in the Trimethoxyindole Subunit: Role of the Methoxy Substituents. DNA alkylation by the natural enantiomers of 53-56 were compared with that of 1 in w794 DNA.
Relative Rates of DNA Alkylation for (+)-1, 53, and 54. Following the procedure detailed above, Eppendorf tubes containing 5' end-labeled w794 DNA (9 μL) in TE buffer (pH 7.5) were treated with (+)-duocarmnycin SA, 53, or 54 (1 μL, 10^-5 M in DMSO). […] The solutions were mixed and incubated at 25° C. for 1, 3, 6, 12, 24, 48, and 72 h, respectively. Subsequent isolation of the alkylated DNA by EtOH precipitation, resuspension in TE buffer (10 μL, pH 7.5), thermolysis (30 min, 100° C.), concurrent PAGE, and autoradiography were conducted as detailed above. The relative rate for the alkylation at the 5'-AATTA site was derived from the slopes of the plots of percent integrated optical density (IOD) of the high affinity alkylation site cleavage bands versus time.

w794 DNA [2] = assay: DNA alkylation (thermal strand cleavage, PAGE) within w794 DNA; assay type: biochemical, SV40
w836 DNA = assay: DNA alkylation sites and relative rates within the six-base A sequence (5'-AAAAAA) of w836 DNA; assay type: biochemical, SV40; conditions: for alkylated adenines within six-base A-rich sequence of w836 DNA / AT-rich binding site covered in w836 DNA: 5'-AAAAAA
[3] = In vitro cytotoxic activity
[4] = system: duplex DNA (w794, w836, c988, c820, c1346); assay type: biochemical, SV40; conditions: for sequence preference at the alkylation site: consensus alkylation sequence; for alkylation of individual three-base sequences: 5'-TTA or 5'-ATA
w794 DNA [5] = conditions: pH 7.5, earlier studies; cited from earlier work
[6] = natural enantiomers, 25° C., 24 h
[7] = 5×10^-6 M agent (so in the source), 25° C., w836 5'-AAAAAA

COC(=O)c1cc2c([nH]1)C(=O)C=C1N(C(=O)c3cc4ccccc4[nH]3)CC3CC123 (single isomer, unassigned) [compound 53, Methyl 2-[(Indol-2-yl)carbonyl]-1,2,8,8a-tetrahydrocyclopropa[c]pyrrolo[3,2-e]indol-4-one-6-carboxylate]
concentration dependence of the rate of DNA alkylation (w794 DNA [1]): independent of agent concentration | less effective at DNA alkylation than duocarmycin SA (w794 DNA [2]; (+) enantiomer): 6-10 × | less efficient DNA alkylation than 1 (w794 DNA [2]; [6]): 20 ×

COC(=O)c1cc2c3c(ccc2[nH]1)N(C(=O)c1cc2c4c(ccc2[nH]1)N(C(=O)c1cc2c([nH]1)C(=O)C=C1N(C(=O)OC(C)(C)C)CC5CC125)CC4)CC3 (centres unmarked) [compound 20, 6-[7-[Methyl 1,2-Dihydro-(3H-pyrrolo[3,2-e]indole-3-yl)carbonyl-7-carboxylate]1,2-dihydro-(3H-pyrrolo[3,2-e]indole-3-yl)carbonyl]-2-((tert-butyloxy)carbonyl)-1,2,8,8a-tetrahydrocyclopropa[c]pyrrolo[3,2-e]indol-4-one]
alkylated adenines within six-base A-rich sequence of w836 DNA (w836 DNA): the natural enantiomer of 20 alkylated the same sites as ent-(-)-DSA-CDPI2 while the unnatural enantiomer of 20 alkylated the same sites as the natural enantiomer (+)-DSA-CDPI2 | time required to reach a detectable and diminished level of DNA alkylation (w836 DNA; 5×10^-6 M agent (so in the source), 25° C., both enantiomers): 72 h | more potent cytotoxicity than simple derivatives N--BOC-DSA (4) and N--Ac-DSA ([3]; natural enantiomers): less than 10 × | cytotoxic potency of the two enantiomers compared ([3]; natural versus unnatural enantiomer): nearly equipotent

COC(=O)c1cc2c3c(ccc2[nH]1)N(C(=O)c1cc2c([nH]1)C(=O)C=C1N(C(=O)c4cc5c6c(ccc5[nH]4)N(C(N)=O)CC6)CC4CC124)CC3 (single isomer, unassigned) [ent-(-)-30]
sequence preference at the alkylation site [4]: 5'-AAA>5'-AAT≥5'TAA>5 TAT | alkylated adenines within six-base A-rich sequence of w836 DNA (w836 DNA): alkylated those central to the sequence

COC(=O)c1cc2c3c(ccc2[nH]1)N(C(=O)c1cc2c4c(ccc2[nH]1)N(C(=O)c1cc2c([nH]1)C(=O)C=C1N(C(=O)OC(C)(C)C)C[C@H]5C[C@]125)CC4)CC3 [(+)-CDPI2 -DSA]
AT-rich adenine N3 alkylation selectivity (size of site) [4]: 5 base-pair | sequence preference at the alkylation site [4]: 5'-AAA>5'-AAT≥5'-TAA>5'-TAT | alkylation at the natural-enantiomer high affinity site (5'-AATTA) (w794 DNA [2]): without detectable alkylation | high affinity alkylation site in w794 DNA (w794 DNA [2]): 5'-AATTT

COC(=O)c1cc2c([nH]1)C(=O)C=C1N(C(=O)c3cc4cc(OC)ccc4[nH]3)CC3CC123 (single isomer, unassigned) [compound 54, Methyl 2-[(5-Methoxyindol-2-yl)carbonyl]-1,2,8,8a-tetrahydrocyclopropa[c]pyrrolo[3,2-e]indol-4-one-6-carboxylate]
concentration dependence of the rate of DNA alkylation (w794 DNA [1]): independent of agent concentration | relative rate of DNA alkylation κrel versus 53 (w794 DNA [1]; 10^-5 M, 25° C., 1-72 h, 5'-d(AATTA)): 18-33 | DNA alkylation compared with duocarmycin SA (1), in words (w794 DNA [2]; [6]): essentially indistinguishable from 1

COC(=O)c1cc2c3c(ccc2[nH]1)N(C(=O)c1cc2c([nH]1)C(=O)C=C1N(C(=O)c4cc5c6c(ccc5[nH]4)N(C(N)=O)CC6)CC4CC124)CC3 (single isomer, unassigned; (+)) [(+)-30]
AT-rich adenine N3 alkylation selectivity (size of site) [4]: 5 base-pair | sequence preference at the alkylation site [4]: 5'-AAA>5'-AAT≥5'TAA>5 TAT | alkylated adenines within six-base A-rich sequence of w836 DNA (w836 DNA): alkylated those central to the sequence

COC(=O)c1cc2c([nH]1)C(=O)C=C1N(C(=O)c3cc4c5c(ccc4[nH]3)N(C(=O)c3cc4c6c(ccc4[nH]3)N(C(N)=O)CC6)CC5)CC3CC123 (single isomer, unassigned) [ent-(-)-DSA-CDPI2]
AT-rich adenine N3 alkylation selectivity (size of site) [4]: 5 base-pair | AT-rich binding site covered in w836 DNA (w836 DNA): 5 base-pair | alkylated adenines within six-base A-rich sequence of w836 DNA (w836 DNA): 5' terminal adenines | time required to approach the same level of DNA alkylation as (+)-DSA-CDPI2 (w836 DNA; 5×10^6 M agent (so in the source), 25° C., w836 5'-AAAAAA): 6 h | high affinity alkylation site in w794 DNA (w794 DNA [2]): 5'-AATTT | high affinity alkylation site in w794 DNA (w794 DNA [2]; listed as (-)-DSA-CDPI2): 5'-AATTT

COC(=O)c1cc2c3c(ccc2[nH]1)N(C(=O)c1cc2c([nH]1)C(=O)C=C1N(C(=O)c4cc5c6c(ccc5[nH]4)N(C(N)=O)CC6)CC4CC124)CC3 (centres unmarked) [compound 30]
AT-rich adenine N3 alkylation selectivity (size of site) [4]: 5 base-pair | time after which extensive DNA alkylation is exhibited (w836 DNA; [7]): 1 to 5 min | cytotoxic potency compared with typical agents [3]: essentially equipotent with the typical agents

COc1c(O)c2c(c3cc(C(=O)N4CCc5c4c(O)c(OC)c4[nH]c(C(=O)N6CC7CC78C6=CC(=O)c6[nH]cc(C)c68)cc54)[nH]c13)CCN2C(N)=O (stereo not drawn) [ent-(-)-CC-1065, reference compound]
AT-rich adenine N3 alkylation selectivity (size of site) [4]: 5 base-pair | high affinity alkylation site in w794 DNA (w794 DNA [2]): 5'-AATTT

COc1cc2cc(C(=O)N3CC4CC45C3=CC(=O)c3ccccc35)[nH]c2c(OC)c1OC (centres unmarked) [CBI-TMI]
relative rate of DNA alkylation at w794 high affinity site (w794 DNA [5]): 1.0 ×

COC(=O)c1cc2c([nH]1)C(=O)C=C1N(C(=O)c3cc4c5c(ccc4[nH]3)N(C(=O)c3cc4c6c(ccc4[nH]3)N(C(N)=O)CC6)CC5)CC3CC123 (single isomer, unassigned; (+)) [(+)-DSA-CDPI2]
AT-rich adenine N3 alkylation selectivity (size of site) [4]: 5 base-pair | alkylation of individual three-base sequences [4]: unusually effective alkylation of 5'-TTA | sequence preference at the alkylation site [4]: 5'-AAA>5'-TTA>5'-TAA≥5'-ATA | AT-rich binding site covered in w836 DNA (w836 DNA): 5 base-pair | alkylated adenines within six-base A-rich sequence of w836 DNA (w836 DNA): only the 3' adenines | time after which extensive DNA alkylation is exhibited (w836 DNA; [7]): 1 to 5 min | alkylation of the minor w794 site (5'-CAAAG) (w794 DNA [2]): failed to alkylate | high affinity alkylation site in w794 DNA (w794 DNA [2]): 5'-AATTA

COc1ccc2c(c1)C13CC1CN(C(=O)c1cc4cc(OC)c(OC)c(OC)c4[nH]1)C3=CC2=O (centres unmarked) [MCBI-TMI]
relative rate of DNA alkylation at w794 high affinity site (w794 DNA [5]): 1.9 ×

COC(=O)c1cc2c([nH]1)C(=O)C=C1N(C(=O)c3cc4ccc(OC)cc4[nH]3)CC3CC123 (single isomer, unassigned) [compound 55, Methyl 2-[(6-Methoxyindol-2-yl)carbonyl]-1,2,8,8a-tetrahydrocyclopropa[c]-pyrrolo[3,2-e]indol-4-one-6-carboxylate]
less efficient DNA alkylation than 1 (w794 DNA [2]; [6]): 5-10 ×

COC(=O)c1cc2c([nH]1)C(=O)C=C1N(C(=O)c3cc4cccc(OC)c4[nH]3)CC3CC123 (single isomer, unassigned) [compound 56, Methyl 2-[(7-Methoxyindol-2-yl)carbonyl]-1,2,8,8a-tetrahydrocyclopropa[c]pyrrolo[3,2-e]indol-4-one-6-carboxylate]
less efficient DNA alkylation than 1 (w794 DNA [2]; [6]): 5-10 ×

COC(=O)c1cc2cc(NC(=O)c3cc4c([nH]3)C(=O)C=C3N(C(=O)OC(C)(C)C)CC5CC345)ccc2[nH]1 (centres unmarked) [compound 17, N-(Methyl 1H-Indol-5-yl-2-carboxylate)-2-((tert-butyloxy)carbonyl)-1,2,8,8a-tetrahydrocyclopropa[c]pyrrolo[3,2-e]indol-4-one-7-carboxamide]
AT-rich adenine N3 alkylation selectivity (size of site) [4]: 3.5 base-pair | cytotoxic potency compared with simple derivatives N--BOC-DSA (4) and N--Ac-DSA ([3]; natural enantiomers): essentially indistinguishable

COC(=O)c1cc2cc(NC(=O)c3cc4cc(NC(=O)c5cc6c([nH]5)C(=O)C=C5NCC7CC567)ccc4[nH]3)ccc2[nH]1 (centres unmarked) [compound 24]
DNA alkylation efficiency relative to 18 [4]: about an order of magnitude less efficient | comparison of DNA alkylation selectivity [4]: no differences in their DNA alkylation selectivity | less efficient at alkylating DNA than DSA-indole2 [4]: ca. 100 × | slower DNA alkylation than DSA-indole2 [4]: ca. 1000 × | unnatural enantiomer less effective at DNA alkylation than natural enantiomer ([4]; unnatural enantiomer): approximately 10 × | cytotoxic potency, effect of terminal N^2 substituent (18, 23, 24 compared) ([3]; natural and unnatural enantiomers): noticeably less potent

COC(=O)c1cc2c([nH]1)C(=O)C=C1N(C(=O)c3cc4c5c(ccc4[nH]3)N(C(N)=O)CC5)CC3CC123 (single isomer, unassigned; (+)) [(+)-DSA-CDPI1]
alkylation of the minor w794 site (5'-CAAAG) (w794 DNA [2]): prominently alkylates | concentration required at minor site (5'-CAAAG) relative to major 5'-AATTA site (w794 DNA [2]): 10 x

COC(=O)c1cc2c3c(ccc2[nH]1)N(C(=O)c1cc2c4c(ccc2[nH]1)N(C(=O)c1cc2c([nH]1)C(=O)C=C1N(C(=O)OC(C)(C)C)C[C@@H]5C[C@@]125)CC4)CC3 [ent-(-)-CDPI2 -DSA]
AT-rich adenine N3 alkylation selectivity (size of site) [4]: 5 base-pair | alkylation of individual three-base sequences [4]: under represented alkylation of 5'-ATA | sequence preference at the alkylation site [4]: 5'-AAA>5'-TAA>5'-TTA>5'-ATA | high affinity alkylation site in w794 DNA (w794 DNA [2]): 5'-AATTA
